One compound from US20120129842A1, “BISTHIAZOLE INHIBITORS OF PRO-MATRIX METALLOPROTEINASE ACTIVATION” (priority 2010, published 2012) can be followed below.

The experiment has as its target T1, full-length proMMP9(1-707) (SEQ ID NO:1) (Homo sapiens, UniProt P14780, R574P).
T1 construct: made in house; host or cells: HEK293 (proMMP9, secreted); E. coli (MMP3)
Briefly: proMMP9/MMP3 P126 Activation Assay. As to conditions: 20 nM proMMP9, 20 nM MMP3, 80 min 37° C. Format: biochemical. As for the experimental part: The reaction volume was 50 μL. […] Reactivity of residual MMP3 towards P-126 substrate was minimal under these conditions.

T1 sequence (P14780 20-707 R574P): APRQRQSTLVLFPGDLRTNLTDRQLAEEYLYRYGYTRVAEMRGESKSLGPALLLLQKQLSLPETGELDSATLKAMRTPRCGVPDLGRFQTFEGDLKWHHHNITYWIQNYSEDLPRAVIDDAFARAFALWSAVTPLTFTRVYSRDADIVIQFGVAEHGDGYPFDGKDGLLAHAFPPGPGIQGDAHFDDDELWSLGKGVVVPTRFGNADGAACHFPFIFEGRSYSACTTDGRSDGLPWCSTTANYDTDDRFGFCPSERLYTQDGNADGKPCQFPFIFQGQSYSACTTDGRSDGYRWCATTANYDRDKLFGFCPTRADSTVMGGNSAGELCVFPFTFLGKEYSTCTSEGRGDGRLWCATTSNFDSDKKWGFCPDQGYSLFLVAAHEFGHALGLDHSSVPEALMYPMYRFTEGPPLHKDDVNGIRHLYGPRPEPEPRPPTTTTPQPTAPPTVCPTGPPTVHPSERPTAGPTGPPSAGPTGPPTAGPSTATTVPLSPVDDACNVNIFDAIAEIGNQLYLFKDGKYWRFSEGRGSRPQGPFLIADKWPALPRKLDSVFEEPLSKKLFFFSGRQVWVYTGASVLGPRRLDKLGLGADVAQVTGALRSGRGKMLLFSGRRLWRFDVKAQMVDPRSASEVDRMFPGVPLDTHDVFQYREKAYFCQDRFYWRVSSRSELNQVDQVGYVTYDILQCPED

A word on the IC50: it is the concentration needed to halve the response being measured. The low end stands for higher potency, the high end for lower potency. With `Cc1nc(C)c(-c2csc(Nc3cc(S(N)(=O)=O)ccc3OC(C)C)n2)s1` [Example 64, 3-(2′,4′-Dimethyl-[4,5′]bithiazolyl-2-ylamino)-4-isopropoxy-benzenesulfonamide.HBr], the midpoint of inhibition, the IC50, lay at 180 nM.
